In patent US20130150363A1, “Method of Treating Cancer Using a cMET and AXL Inhibitor and an ErbB Inhibitor” (GlaxoSmithKline, priority 2008, published 2013):

Legend:
Assay type in all cases: cell-based
[1] = system: SNU-16 gastric carcinoma cells; assay: Cell growth inhibition (CellTiter-Glo), SNU-16; settings: Homo sapiens, SNU-16, 72 h, 3 days
Excerpt: (§1) Esophageal carcinoma cell line OE33 was purchased from ECACC European Collection of Cell Cultures (UK). Breast cancer cell line JIMT-1 and gastric carcinoma cell line MKN-45 were purchased from Deutsche Sammlung von Mikroorganismen and Zellkulturen GmbH (Germany); KPL-4, a human breast cancer cell line was kindly provided by Prof. J Kurebayashi (Kawasaki Medical School, Kurashiki, Japan). […] The LICR-LON-HN5 head and neck carcinoma cell line (HN5) was a gift from the Institute of Cancer Research, Surrey, U.K. HN5C12 was developed by single-cell cloning of HN5 followed by exposure to increasing concentrations of lapatinib. […] Cell growth inhibition was determined via CellTiter-Glo cell viability assays. […] ATP levels were determined by adding Cell Titer Glo0 (Promega), incubating for 20 minutes then the luminescent signal was read on the SpectraMax M5 plate with a 0.5 second integration time. Cell growth was calculated relative to vehicle (DMSO) treated control wells. […] CI values were calculated with the interpolated IC50 values and the mutually non-exclusive equation derived by Chou and […](a)+Db/IC50(b)+(Da×Db)/(IC50(a)×IC50(b)) where IC50(a) is the IC50 of the inhibitor A; IC50(b) is the IC50 for the inhibitor B; […] […] EOHSA at each dose was calculated as the minimum difference in average % inhibition between the combination and each monotherapy, from the appropriate ANOVA contrast. […]

[2] = system: HT29 colon carcinoma cells; assay: Cell growth inhibition (CellTiter-Glo), HT29; settings: Homo sapiens, HT-29, 72 h, 3 days
Excerpt: as §1

[3] = system: AGS gastric carcinoma cells; assay: Cell growth inhibition (CellTiter-Glo), AGS; settings: Homo sapiens, 72 h, gastric_AGS, 3 days
Excerpt: as §1

[4] = system: BT474 breast carcinoma cells; assay: Cell growth inhibition (CellTiter-Glo), BT474; settings: Homo sapiens, BT-474, 72 h, 3 days
Excerpt: Esophageal carcinoma cell line OE33 was purchased from ECACC European Collection of Cell Cultures (UK). Breast cancer cell line JIMT-1 and gastric carcinoma cell line MKN-45 were purchased from Deutsche Sammlung von Mikroorganismen and Zellkulturen GmbH (Germany); KPL-4, a human breast cancer cell line was kindly provided by Prof. J Kurebayashi (Kawasaki Medical School, Kurashiki, Japan). […] The LICR-LON-HN5 head and neck carcinoma cell line (HN5) was a gift from the Institute of Cancer Research, Surrey, U.K. HN5C12 was developed by single-cell cloning of HN5 followed by exposure to increasing concentrations of lapatinib. […] Cell growth inhibition was determined via CellTiter-Glo cell viability assays. […] BT474-J4 and HN5C12 were washed with PBS and plated in their culture media without lapatinib. […] ATP levels were determined by adding Cell Titer Glo0 (Promega), incubating for 20 minutes then the luminescent signal was read on the SpectraMax M5 plate with a 0.5 second integration time. Cell growth was calculated relative to vehicle (DMSO) treated control wells. […] EOHSA at each dose was calculated as the minimum difference in average % inhibition between the combination and each monotherapy, from the appropriate ANOVA contrast. […] The p-values for both synergy and antagonism were calculated using this adjustment.

[5] = system: BT474-J4 lapatinib resistant breast carcinoma cells; assay: Cell growth inhibition (CellTiter-Glo), BT474-J4; settings: Homo sapiens; for IC50: 72 h, 3 days
Excerpt: Esophageal carcinoma cell line OE33 was purchased from ECACC European Collection of Cell Cultures (UK). Breast cancer cell line JIMT-1 and gastric carcinoma cell line MKN-45 were purchased from Deutsche Sammlung von Mikroorganismen and Zellkulturen GmbH (Germany); KPL-4, a human breast cancer cell line was kindly provided by Prof. J Kurebayashi (Kawasaki Medical School, Kurashiki, Japan). […] The LICR-LON-HN5 head and neck carcinoma cell line (HN5) was a gift from the Institute of Cancer Research, Surrey, U.K. HN5C12 was developed by single-cell cloning of HN5 followed by exposure to increasing concentrations of lapatinib. […] Cell growth inhibition was determined via CellTiter-Glo cell viability assays. […] BT474-J4 and HN5C12 were washed with PBS and plated in their culture media without lapatinib. […] ATP levels were determined by adding Cell Titer Glo0 (Promega), incubating for 20 minutes then the luminescent signal was read on the SpectraMax M5 plate with a 0.5 second integration time. Cell growth was calculated relative to vehicle (DMSO) treated control wells. […] Excess Over Highest Single Agent (EOHSA) is defined as a statistically significant improvement in the combination compared to the component monotherapies. […] Analysis was conducted using two-factor analysis of variance with interaction (model terms were dose of drug A, dose of drug B, and interaction between doses of drug A and B), followed by linear contrasts between each combination group and corresponding monotherapies. Analysis was conducted using SAS (version 9, provided by SAS Institute, Cary, N.C.). EOHSA at each dose was calculated as the minimum difference in average % inhibition between the combination and each monotherapy, from the appropriate ANOVA contrast. Since there are many comparisons for the % inhibition endpoint, p-value adjustment for multiple comparisons was performed. Hommel's procedure was implemented in order to improve the power while retaining […] […] The p-values for both synergy and antagonism were calculated using this adjustment.

[6] = system: HCC1954 breast carcinoma cells; assay: Cell growth inhibition (CellTiter-Glo), HCC1954; settings: Homo sapiens, HCC1954, 72 h, 3 days
Excerpt: as §1

SMILES | IC50 ([1]; gastric_SNU16, +HGF (2 ng/mL)) [µM] | IC50 ([1]; gastric_SNU16, −HGF) [µM] | IC50 ([2]; colon_HT-29, +HGF (2 ng/mL)) [µM] | IC50 ([2]; colon_HT-29, −HGF) [µM] | IC50 ([3]; +HGF (2 ng/mL)) [µM] | IC50 ([3]; −HGF) [µM] | IC50 ([4]; breast_BT474, +HGF (2 ng/mL)) [µM] | IC50 ([4]; breast_BT474, −HGF) [µM] | IC50 ([5]; breast_BT474-J4, +HGF (2 ng/mL)) [µM] | IC50 ([5]; breast_BT474-J4, −HGF) [µM] | inhibition at 1 µM ([5]; BT474-J4, lapatinib by itself at 1.0 μM (FIG. 5A)) [%] | IC50 ([6]; breast_HCC1954, +HGF (2 ng/mL)) [µM] | IC50 ([6]; breast_HCC1954, −HGF) [µM]
C#Cc1cccc(Nc2ncnc3cc(OCCOC)c(OCCOC)cc23)c1 [Erlotinib, N-(3-ethynylphenyl)-6,7-bis{[2-(methyloxy)ethyl]oxy}-4-quinazolinamine] | 9.37 | 6.46 | > 10 | > 10 | > 10 | > 10 | – | – | – | – | – | – | –
CS(=O)(=O)CCNCc1ccc(-c2ccc3ncnc(Nc4ccc(OCc5cccc(F)c5)c(Cl)c4)c3c2)o1 [Lapatinib, N-(3-chloro-4-{[(3-fluorophenyl)methyl]oxy}phenyl)-6-[5-({[2-(methylsulfonyl)ethyl]amino}methyl)-2-furanyl]-4-quinazolinamine] | – | – | – | – | – | – | 0.12 | 0.11 | > 10 | > 10 | < 50 | 5.27 | 0.8
